Converted amounts (≈) assume the structure as drawn.
system: CD4+ T cells; assay: in vitro T cell activity assay (CTV-stained CD4+ T cell proliferation, flow cytometry); assay type: cell-based; conditions: B6J mouse spleen CD4+ T cells activated with CD3/CD28 Dynabeads, 72 hours incubation, 0.01-1000 ng/mL, CTV intensity
From the text: The degrees of decreases in immunosuppressive activity of the nine novel compounds were identified by a known in vitro T cell activity assay (J. Immunol. 143:718-726, 1989).
CD4+ T cell division is an indicator of immune response. When CD4+ T cells stained with Cell Trace™ Violet (CTV) proliferate by immune responses, the amount of CTV of each cell decreases, and thus the degrees of immunosuppressive activity were identified using this as an indicator.
Single cells were isolated from spleen of 6- to 8-week-old B6J experimental mice, and CD4+ T cells were isolated using a MagniSort® Mouse CD4 T cell Enrichment Kit (eBioscience). CD4+ T cells were stained with a Cell Trace™ Violet (CTV) Cell Proliferation Kit (Molecular Probes), and FK506 or the nine novel compounds were added thereto in concentrations of 0.01 ng/mL, 0.1 ng/mL, 1 ng/mL, 10 ng/mL, 100 ng/mL, and 1000 ng/mL, respectively, followed by incubation for 72 hours. In order to activate T cells, Dynabeads® Mouse T-Activator CD3/CD28 (Gibco) was used. As a control, inactivated T cells were used. After incubation, CTV intensity was analyzed by flow cytometry.
Table 12 below and FIG. 55 show the degrees of T cell proliferation based on CTV intensities measured using a flow cytometer, indicating the degrees of immunosuppressive activity of FK506 and the nine novel compounds.

Compound	Immunosuppression IC50 [ng/mL]
9-deoxo-31-O-demethyl-prolyl-FK506	886.5
9-deoxo-prolyl-FK506 [reference compound]	268.3
CCCC1C=C(C)CC(C)CC(OC)C2OC(O)(CC(=O)N3CCCCC3C(=O)OC(C(C)=CC3CCC(O)C(O)C3)C(C)C(O)CC1=O)C(C)CC2OC (stereo not drawn) [9-deoxo-31-O-demethyl-36,37-dihydro-FK506]	45.87
C=CC[C@@H]1/C=C(/C)C[C@H](C)C[C@H](OC)[C@H]2O[C@@](O)(CC(=O)N3CCCC[C@H]3C(=O)O[C@H](/C(C)=C/[C@@H]3CC[C@@H](O)[C@H](O)C3)[C@H](C)[C@@H](O)CC1=O)[C@H](C)C[C@@H]2OC [9-deoxo-31-O-demethyl-FK506, reference compound]	15.09
CC[C@@H]1/C=C(\C)C[C@H](C)C[C@H](OC)[C@H]2O[C@@](O)(CC(=O)N3CCCC[C@H]3C(=O)O[C@H](/C(C)=C/[C@@H]3CC[C@@H](O)[C@H](O)C3)[C@H](C)[C@@H](O)CC1=O)[C@H](C)C[C@@H]2OC [9-deoxo-31-O-demethyl-FK520]	258.1
CO[C@H]1C[C@@H](C)C/C(C)=C/[C@@H](C)C(=O)C[C@H](O)[C@@H](C)[C@@H](/C(C)=C/[C@@H]2CC[C@@H](O)[C@H](O)C2)OC(=O)[C@@H]2CCCCN2C(=O)C[C@]2(O)O[C@H]1[C@@H](OC)C[C@H]2C [9-deoxo-31-O-demethyl-FK523]	3378
CCCC1C=C(C)CC(C)CC(OC)C2OC(O)(CC(=O)N3CCCCC3C(=O)OC(C(C)=CC3CCC(O)C(OC)C3)C(C)C(O)CC1=O)C(C)CC2OC (stereo not drawn) [9-deoxo-36,37-dihydro-FK506]	14.1
C=CC[C@@H]1/C=C(\C)C[C@H](C)C[C@H](OC)[C@H]2O[C@@](O)(CC(=O)N3CCCC[C@H]3C(=O)O[C@H](/C(C)=C/C3CC[C@@H](O)[C@H](OC)C3)[C@H](C)[C@H](O)CC1=O)[C@H](C)C[C@@H]2OC (stereo partly drawn) [9-deoxo-FK506, reference compound]	0.513
CCC1C=C(C)CC(C)CC(OC)C2OC(O)(CC(=O)N3CCCCC3C(=O)OC(C(C)=CC3CCC(O)C(OC)C3)C(C)C(O)CC1=O)C(C)CC2OC (stereo not drawn) [9-deoxo-FK520]	24.98
COC1CC(C=C(C)C2OC(=O)C3CCCCN3C(=O)CC3(O)OC(C(OC)CC(C)CC(C)=CC(C)C(=O)CC(O)C2C)C(OC)CC3C)CCC1O (stereo not drawn) [9-deoxo-FK523]	1985
CCC[C@@H]1/C=C(\C)C[C@H](C)C[C@H](OC)[C@H]2O[C@@](O)(C(=O)C(=O)N3CCCC[C@H]3C(=O)O[C@H](/C(C)=C/[C@@H]3CC[C@@H](O)[C@H](O)C3)[C@H](C)[C@@H](O)CC1=O)[C@H](C)C[C@@H]2OC [31-O-demethyl-36,37-dihydro-FK506]	1.723
C=CCC1/C=C(\C)CC(C)CC(OC)C2OC(O)(C(=O)C(=O)N3CCCCC3C(=O)OC(/C(C)=C/C3CCC(O)C(O)C3)C(C)C(O)CC1=O)C(C)CC2OC (stereo not drawn) [31-O-demethyl-FK506, reference compound]	0.246
CC[C@@H]1/C=C(\C)C[C@H](C)C[C@H](OC)[C@H]2O[C@@](O)(C(=O)C(=O)N3CCCC[C@H]3C(=O)O[C@H](/C(C)=C/[C@@H]3CC[C@@H](O)[C@H](O)C3)[C@H](C)[C@@H](O)CC1=O)[C@H](C)C[C@@H]2OC [31-O-demethyl-FK520]	3.273

same assay, conditions: B6J mouse spleen CD4+ T cells activated with CD3/CD28 Dynabeads, 72 hours incubation, 0.01-1000 ng/mL, CTV intensity; read-out: Immunosuppression IC50

Compound	IC50 [ng/mL]
C=CC[C@@H]1/C=C(\C)C[C@H](C)C[C@H](OC)[C@H]2O[C@@](O)(C(=O)C(=O)N3CCCC[C@H]3C(=O)O[C@H](/C(C)=C/[C@@H]3CC[C@@H](O)[C@H](OC)C3)[C@H](C)[C@@H](O)CC1=O)[C@H](C)C[C@@H]2OC [FK506, reference compound]	0.027 (≈ 0.0336 nM)

system: vibrissae tissue of mice; assay: hair growth-promoting activity in cultured isolated mouse vibrissae; assay type: cell-based; conditions: histology of cultured treated vibrissae, FIG. 58
Experimental: Hair growth-promoting activity of the nine novel compounds of the present invention relative to that of the parent drug (FK506) was evaluated using vibrissae tissue of mice. The mouth and mouth tissue (whisker pad) around the mouth where thick hair grows were peeled off from each of 6- to 8-week-old experimental black mouse (C57BL/6 mouse) and treated with […] for a short time of several seconds. The treated mouth tissue was prepared in a state of being immersed in phosphate-buffered saline (PBS) supplemented with 1% penicillin/streptomycin (P/S) on ice. Surrounding subcutaneous fat tissue and connective tissue were removed using forceps and blades while observing the prepared mouth tissue using a dissecting microscope to expose vibrissae tissue. […] Based on the results, it was confirmed that the composition for promoting hair growth, including at least one of the nine novel compounds of the present invention as an active ingredient, had the effects on promoting hair growth as desired, and thus it was determined that the composition may be effectively used for preventing and treating hair loss.

Compound	expression of growth marker (Ki67) of cells compared to an untreated group
CC[C@@H]1/C=C(\C)C[C@H](C)C[C@H](OC)[C@H]2O[C@@](O)(CC(=O)N3CCCC[C@H]3C(=O)O[C@H](/C(C)=C/[C@@H]3CC[C@@H](O)[C@H](O)C3)[C@H](C)[C@@H](O)CC1=O)[C@H](C)C[C@@H]2OC [9-deoxo-31-O-demethyl-FK520]	overexpressed

Reference: patent US12011497B2, “Compounds, compositions containing same, and use thereof for promoting hair growth” (Molgenbio Co. Ltd., priority 2018, dated 2024)
